Measurements: patent publication US20120059056A1, “CARBONATE DERIVATIVES AS SKIN CARE” (EASTMAN CHEMICAL COMPANY, priority 2010, published 2012)
One block for each compound: values may come before it.

Experiments:
[1] = biological target: Novozym 435 (immobilized Candida Antarctica lipase B) (Moesziomyces antarcticus, UniProt P41365); assay: Enzymatic hydrolysis with Novozym 435 in toluene / pH 7 buffer, HPLC analysis; conditions: for enzymatic hydrolysis: lipase, biphasic mixture of toluene and aqueous pH 7 buffer, time not stated
Sequence of Novozym 435 (immobilized Candida Antarctica lipase B) (P41365 26-342): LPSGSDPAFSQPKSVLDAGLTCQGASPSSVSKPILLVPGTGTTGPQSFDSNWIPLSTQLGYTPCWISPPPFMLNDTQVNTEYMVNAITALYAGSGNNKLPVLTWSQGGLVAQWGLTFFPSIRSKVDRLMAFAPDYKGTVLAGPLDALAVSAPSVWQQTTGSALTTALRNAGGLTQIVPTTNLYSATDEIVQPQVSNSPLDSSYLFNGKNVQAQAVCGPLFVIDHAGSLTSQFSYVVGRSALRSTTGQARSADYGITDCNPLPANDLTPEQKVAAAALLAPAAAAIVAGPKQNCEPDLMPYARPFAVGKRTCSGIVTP
Experimental: Resveratrol tris(methyl carbonate) (100 mg; 0.249 mmol) was dissolved in 2 mL of toluene. 2 mL of pH 7 buffer was added followed by 100 mg of Novozym 435 (immobilized Candida Antarctica lipase B).
2 mL of pH 7 buffer was added followed by 100 mg of Novozym 435 (immobilized Candida Antarctica lipase B).
Resveratrol tripalmitate (100 mg; 0.11 mmol) was dissolved in 2 mL of toluene. 2 mL of pH 7 buffer was added followed by 100 mg of Novozym 435 (immobilized Candida Antarctica lipase B).
1 mL of pH 7 buffer was added followed by 100 mg of Novozym 435 (immobilized Candida Antarctica lipase B).
Hydroxytyrosol tris(methyl carbonate) (3, R=Me, 100 mg; 0.305 mmol) was dissolved in 2 mL of toluene. 2 mL of pH 7 buffer was added followed by 100 mg of Novozym 435 (immobilized Candida Antarctica lipase B).
Hydroxytyrosol trihexanoate containing 1.9% hydroxytyrosol by HPLC analysis (100 mg; 0.22 mmol) was dissolved in 2 mL of toluene. 2 mL of pH 7 buffer was added followed by 100 mg of Novozym 435 (immobilized Candida Antarctica lipase B).

[2] = Similar reaction run in the absence of enzyme (toluene / pH 7 buffer); format: physicochemical; conditions: for hydrolysis in the absence of the enzyme: toluene / aqueous pH 7 buffer, time not stated; for hydrolysis in the absence of enzyme: after 3 days
Experimental: Resveratrol tris(methyl carbonate) (100 mg; 0.249 mmol) was dissolved in 2 mL of toluene. […]
Hydroxytyrosol tris(methyl carbonate) (3, R=Me, 100 mg; 0.305 mmol) was dissolved in 2 mL of toluene. […]

[3] = Solubility in solvents; format: physicochemical
[4] = 24 h, ambient temperature, equal volumes of both layers
[5] = 48 h, ambient temperature (trihexanoate contained 1.9% hydroxytyrosol at start)
[6] = 1 day, ambient temperature, top layer only
[7] = 3 days, ambient temperature, toluene/pH 7 buffer
[8] = 22 h, ambient temperature, toluene/pH 7 buffer, equal volumes of both layers

Compound: COC(=O)OCCc1ccc(OC(=O)OC)c(OC(=O)OC)c1 [Hydroxytyrosol tris(methyl carbonate)]
hydroxytyrosol by HPLC analysis [1, 4]: 74%
mono- and di-carbonates by HPLC analysis [1, 4]: 1.5%
unchanged hydroxytyrosol tris(methyl carbonate) by HPLC analysis [1, 4]: 17%
mono- and di-carbonates by HPLC analysis ([1]; 48 h, ambient temperature): 5%
unchanged starting tris(methyl carbonate) or trihexanoate by HPLC analysis ([1]; 48 h, ambient temperature): 3%
hydroxytyrosol by HPLC analysis [1, 5]: 92%
hydrolysis to hydroxytyrosol in the absence of enzyme ([2]; after 2 days, toluene/pH 7 buffer): no detectable hydrolysis to hydroxytyrosol

Compound: CCCCCC(=O)OCCc1ccc(OC(=O)CCCCC)c(OC(=O)CCCCC)c1 [Hydroxytyrosol trihexanoate, Hydroxytyrosol Trihexanoate, reference compound]
3,4-di(hexanoyl)phenylethanol by HPLC analysis ([1]; 48 h, ambient temperature): 18.7%
unchanged starting tris(methyl carbonate) or trihexanoate by HPLC analysis ([1]; 48 h, ambient temperature): 72.3%
hydroxytyrosol by HPLC analysis [1, 5]: 2.5%

Compound: CCCCCCCCCCCCCCCC(=O)Oc1ccc(C=Cc2cc(OC(=O)CCCCCCCCCCCCCCC)cc(OC(=O)CCCCCCCCCCCCCCC)c2)cc1 [Resveratrol tripalmitate, Resveratrol Tripalmitate, reference compound]
extent of enzymatic hydrolysis [1, 7]: minimal hydrolysis
unchanged starting tris(alkyl carbonate) or tripalmitate by HPLC analysis [1, 7]: 89%
enzymatic hydrolysis [1]: minimal hydrolysis

Continued, in another order:

resveratrol bis(butyl carbonate) by HPLC analysis [1, 6]: 41%
resveratrol tris(butyl carbonate) remaining by HPLC analysis [1, 6]: 59%
resveratrol bis/di(alkyl carbonate) or dipalmitate by HPLC analysis [1, 7]: 41%
resveratrol by HPLC analysis [1, 7]: 35%
resveratrol mono(alkyl carbonate) by HPLC analysis [1, 7]: 5%
unchanged starting tris(alkyl carbonate) or tripalmitate by HPLC analysis [1, 7]: 19%
hydrolysis in the absence of the enzyme [2]: no observed hydrolysis
Compound: CCCCOC(=O)Oc1ccc(/C=C/c2cc(OC(=O)OCCCC)cc(OC(=O)OCCCC)c2)cc1 [Resveratrol tris(butyl carbonate)]
enzymatic hydrolysis [1]: undergo hydrolysis of the carbonate to afford dicarbonates, monocarbonates, and the parent triphenol

hydrolysis in the absence of enzyme ([2]; toluene/pH 7 buffer): no detectable hydrolysis
Compound: 4-Hydroxybenzyl Alcohol bis(butyl carbonate)

resveratrol bis(methyl carbonate) by HPLC analysis [1, 8]: 15.8%
resveratrol by HPLC analysis [1, 8]: 23.75%
resveratrol mono(methyl carbonate) by HPLC analysis [1, 8]: 52.9%
resveratrol tris(methyl carbonate) remaining by HPLC analysis [1, 8]: 7.0%
resveratrol bis/di(alkyl carbonate) or dipalmitate by HPLC analysis [1, 7]: 0.6%
resveratrol by HPLC analysis [1, 7]: 63.8%
resveratrol mono(alkyl carbonate) by HPLC analysis [1, 7]: 35.1%
unchanged starting tris(alkyl carbonate) or tripalmitate by HPLC analysis [1, 7]: no detectable
hydrolysis in the absence of enzyme ([2]; toluene/pH 7 buffer): no detectable hydrolysis
hydrolysis in the absence of the enzyme [2]: no observed hydrolysis
Compound: COC(=O)Oc1ccc(/C=C/c2cc(OC(=O)OC)cc(OC(=O)OC)c2)cc1 [Resveratrol tris(methyl carbonate)]
enzymatic hydrolysis [1]: undergo hydrolysis of the carbonate to afford dicarbonates, monocarbonates, and the parent triphenol

solubility in toluene and water [3]: insolubility in both toluene and water
Compound: OCc1ccc(O)cc1 [4-hydroxybenzyl alcohol, 4-Hydroxybenzyl alcohol]
